In patent publication US20230390366A1, “PARAPHARMACEUTICAL OR PHARMACEUTICAL COMPOSITION ADMINISTRABLE TO A LIVING BEING, PREFERABLY A HUMAN BEING, COMPRISING AT LEAST ONE ENZYME FOR THE TREATMENT AND/OR PREVENTION OF BACTERIAL INFECTIONS INVOLVING BIOFILM FORMATION” (priority 2020, published 2023):

Columns and labels:
Type in all cases: cell-based
[1] = test system: S. aureus ATCC33591 biofilm; test: Curative enzyme treatment followed by 24 hours vancomycin, biofilm in 96-well plates, viability (resazurin) and biomass (crystal violet); conditions: vancomycin 10 mg and 20 mg/L, absence of enzyme treatment
Description: For the tests described below, vancomycin was used as the antibiotic molecule. The antibiotic was added at different concentrations in TGN for 24 hours at 37° C. on the biofilms pretreated with the enzyme composition according to the invention (see the below sections). The biofilm was then washed before carrying out the biomass and viability measurements.
In this model, cell viability was measured indirectly, by measuring the metabolism of cells in the biofilm. Indeed, viability was quantified by tracking changes in the colour of resazurin (7-Hydroxy-3H-phenoxazin-3-one 10 oxide) (prestoBlue, ThermoFisher). […] The quantification of resorufin was carried out by measuring fluorescence. […]
The experimental method for cultivating the strains and forming the biofilm is described in point 1.1 of this document. […] The biofilms were then washed 2× with PBS (200 μl) before biomass and viability were analysed. Biomass was quantified via the CV staining technique following the procedure described in point 1.1. […] The plate containing all the samples was then incubated for 24 hours at 37° C. in the spectraMax M3 plate reader. Fluorescence was measured every 10 minutes for 18 hours (excitation 560 nm, emission 590 nm). […]

S. aureus biofilm [2] = test: Curative enzyme treatment followed by 24 hours vancomycin, biofilm on titanium coupons, viability by CFU counting; conditions: vancomycin 20 mg/L
Source text: (§1) Two different biofilm models were used: static biofilm in 96-well plate (as described previously) and biofilm on titanium coupons. Titanium was chosen because it is a material widely used in the manufacture of implants (e.g. orthopaedic prostheses, dental implants, heart valves, pacemakers, etc.). The techniques used to measure viability differ between the two models and are detailed below.
(§2) In this model, viability was quantified after detachment and homogenisation of the biofilm via the technique of spreading and counting cells on a TSA culture media (VWR).
(§3) Titanium coupons (n=3 for each condition) were placed in the wells of a 12-well plate and incubated at 37° C. with agitation (50 rpm) for 24 hours in 3 ml of bacterial inoculum at an OD of 0.005 (10^6 CFU/ml) in order to allow biofilm to form. The coupons were then washed 2× with PBS (2 ml) and treated for 1 hour at 37° C. with the composition according to the invention or the solution without enzymes (CT−=20 mM TrisHCl pH7). The coupons were then washed twice with PBS (2 ml) and reincubated in 750 μl of TGN containing 0 or 20 mg/L of vancomycin for 24 hours at 37° C. with agitation (50 rpm). After two washes with PBS (2 ml), the biofilm was detached and homogenised in 2 ml of PBS. Different dilutions were carried out (from 10 to 10) and 10 μl of each dilution was spread on a TSA dish. Colonies (CFU) were counted after 18 hours of incubation at 37° C.
(§4) To analyse the effect of the compositions according to the invention, a statistical test (one-way ANOVA and Tukey's post-hoc test) was carried out. This test compares the fluorescence (viability) or absorbance (biomass) values of the CT− negative control (=treatment with buffer without enzymes) and of the biofilms treated with the enzyme compositions, at each vancomycin concentration. The difference is significant when the pvalue of the statistical test is less than or equal to 0.05 (* used on graphs). When this is specified in the comparative examples, the activity of the various enzyme compositions is compared (one-way ANOVA and post-hoc Tukey test).

[3] = test system: S. epidermidis ATCC35984 biofilm; test: as above; conditions: vancomycin 20 mg/L, absence of enzyme treatment (CT−, TGN)
Source text: as §1, §2, §3, §4

MG63 osteoblasts = test system: MG63 osteoblasts
Description: Cytotoxicity tests were performed on MG63 osteoblasts and other cell types.

[4] = test system: biofilms comprising Candida albicans; test: Enzyme treatment of biofilms comprising Candida albicans followed by antifungal/antibiotic; conditions: Candida albicans alone or with S. aureus and/or E. coli; enzymes 30 minutes or 1 hour, then Caspofungin (and Moxifloxacin or Meropenem) 24 hours
Source text: The inventors then attempted to treat biofilms comprising Candida albicans, either in monoculture or in complex biofilm models comprising Candida albicans and prokaryotes. Different strains of Candida albicans were used: the ATCC24433 strain, as well as strains isolated from orthopaedic prosthesis infections. Subtilisin (protease from Bacillus licheniformis) and lyticase (from Arthrobacter luteus or Bacillus subtilis) were obtained at Sigma. The other enzymes are those used above.
The antifungal drug Caspofungin (Merck Sharp & Dohme) and, for complex biofilms additionally comprising one or more prokaryotes, the antibiotics Moxifloxacin HCl (Bayer) or Meropenem (Mylan) were used (24 hours of treatment, after the application of enzymes).

S. aureus biofilm [5] = test: Curative enzyme treatment (1 hour, 37° C.) of preformed 24-hour biofilm in 96-well plates, residual biomass by crystal violet staining (A570); conditions: S. aureus ATCC33591 and 7832; 100 U/ml in TGN; vs CT−; 1 biofilm/3 of the panel significantly reduced
Description: The effect of a treatment with the composition according to the invention on the biomass of biofilms was studied in a static model in 96-well plates. The curative enzyme treatment was carried out on a preformed 24-hour biofilm. To test its efficacy in reducing the biomass of biofilms, the composition according to the invention was brought into contact with the biofilm for 1 hour at 37° C. The enzyme solution was then removed, and the detached biomass was removed via rinsing steps. Crystal violet (CV) dye was then used to quantify residual biomass. […] CV staining was quantified via spectrophotometry by measuring the absorbance at 570 nm.
The different strains of S. aureus and P. aeruginosa (Table 1) were inoculated in 5 ml of TGN culture medium (Tryptic Soy Broth VWR+1% glucose+2% NaCl) from 20 μl of a stored glycerol stock at −80° C. […] The plates were then emptied, the biofilm was washed 2× with 200 μl PBS pH 7.5 (Sigma) and dried at 60° C. for 18 h before the biomass was analysed.
To quantify the residual biomass, a 1% CV solution (Sigma) was added to the biofilms at room temperature for 15 min. […] The dye attached to the biofilm was then detached and dissolved with 66% […] and absorbance at 570 nm (A570) was measured in a SpectraMax M3 multimode reader. This absorbance value corresponds to the biomass of the biofilm. […]

[6] = test system: S. epidermidis ATCC35984 biofilm; test: as above; conditions: 100 U/ml in TGN, vs CT−, 1 biofilm/3 of the panel significantly reduced

## CN[C@H](CC(C)C)C(=O)N[C@H]1C(=O)N[C@@H](CC(N)=O)C(=O)N[C@H]2C(=O)N[C@H]3C(=O)N[C@H](C(=O)N[C@H](C(=O)O)c4cc(O)cc(O)c4-c4cc3ccc4O)[C@H](O)c3ccc(c(Cl)c3)Oc3cc2cc(c3O[C@@H]2O[C@H](CO)[C@@H](O)[C@H](O)[C@H]2O[C@H]2C[C@](C)(N)[C@H](O)[C@H](C)O2)Oc2ccc(cc2Cl)[C@H]1O [vancomycin]
[1]; 20 mM TrisHCl pH7
  effect on viability of the biofilm (in words): only very slightly reduces
[1]; TGN
  effect on viability of the biofilm (in words): does not reduce
S. aureus biofilm [2]; S. aureus ATCC33591, titanium coupons, absence of enzyme treatment (CT−, Tris-HCl)
  effect on viability in biofilm (in words): does not decrease viability in biofilm
S. aureus biofilm [2]; S. aureus ATCC33591 and 144-20, absence of enzyme treatment (CT−, TGN)
  effect on viability in biofilm (in words): does not significantly reduce viability in biofilm
[3]
  effect on viability in biofilm (in words): does not significantly reduce viability in biofilm

B1: subtilisin: protease from Bacillus licheniformis (Sigma) (protein, UniProt P00780 106-379, looked up)
Subtilisin Carlsberg: AQTVPYGIPLIKADKVQAQGFKGANVKVAVLDTGIQASHPDLNVVGGASFVAGEAYNTDGNGHGTHVAGTVAALDNTTGVLGVAPSVSLYAVKVLNSSGSGSYSGIVSGIEWATTNGMDVINMSLGGASGSTAMKQAVDNAYAKGVVVVAAAGNSGSSGNTNTIGYPAKYDSVIAVGAVDSNSNRASFSSVGAELEVMAPGAGVYSTYPTNTYATLNGTSMASPHVAGAAALILSKHPNLSASQVRNRLSSTATYLGSSFYYGKGLINVEAAAQ
MG63 osteoblasts
  concentration at which already toxic to osteoblasts: about 0.5 U/mL
[4]
  effect on biofilms comprising Candida albicans (in words): sensitised biofilms

B2: CE1: RNase I (Escherichia coli endoribonuclease, class EC4.6.1) 100 U/ml in TGN (protein, UniProt P21338 24-268, looked up)
Ribonuclease I: LALQAKQYGDFDRYVLALSWQTGFCQSQHDRNRNERDECRLQTETTNKADFLTVHGLWPGLPKSVAARGVDERRWMRFGCATRPIPNLPEARASRMCSSPETGLSLETAAKLSEVMPGAGGRSCLERYEYAKHGACFGFDPDAYFGTMVRLNQEIKESEAGKFLADNYGKTVSRRDFDAAFAKSWGKENVKAVKLTCQGNPAYLTEIQISIKADAINAPLSANSFLPQPHPGNCGKTFVIDKAGY
S. aureus biofilm [5]
  effect on the decrease in the biomass percentage of the biofilms (in words): little or no significant effect
[6]
  effect on the decrease in the biomass percentage of the biofilms (in words): little or no significant effect
